Experimental findings from BindingDB's records for doi:10.1021/jm030146j (Merck Research Laboratories, 2003) are described below.

The IC50 is the concentration that inhibits the measured activity by half.

Structures are written as SMILES.

For this test, the target named is Integrin alpha-IIb/beta-3 (Homo sapiens, UniProt P08514+P05106). Put plainly: Inhibition of human alphaIIb-beta3 integrin in platelet aggregation assay.
Integrin alpha-IIb/beta-3, sequence (P05106 27-788 limits assumed): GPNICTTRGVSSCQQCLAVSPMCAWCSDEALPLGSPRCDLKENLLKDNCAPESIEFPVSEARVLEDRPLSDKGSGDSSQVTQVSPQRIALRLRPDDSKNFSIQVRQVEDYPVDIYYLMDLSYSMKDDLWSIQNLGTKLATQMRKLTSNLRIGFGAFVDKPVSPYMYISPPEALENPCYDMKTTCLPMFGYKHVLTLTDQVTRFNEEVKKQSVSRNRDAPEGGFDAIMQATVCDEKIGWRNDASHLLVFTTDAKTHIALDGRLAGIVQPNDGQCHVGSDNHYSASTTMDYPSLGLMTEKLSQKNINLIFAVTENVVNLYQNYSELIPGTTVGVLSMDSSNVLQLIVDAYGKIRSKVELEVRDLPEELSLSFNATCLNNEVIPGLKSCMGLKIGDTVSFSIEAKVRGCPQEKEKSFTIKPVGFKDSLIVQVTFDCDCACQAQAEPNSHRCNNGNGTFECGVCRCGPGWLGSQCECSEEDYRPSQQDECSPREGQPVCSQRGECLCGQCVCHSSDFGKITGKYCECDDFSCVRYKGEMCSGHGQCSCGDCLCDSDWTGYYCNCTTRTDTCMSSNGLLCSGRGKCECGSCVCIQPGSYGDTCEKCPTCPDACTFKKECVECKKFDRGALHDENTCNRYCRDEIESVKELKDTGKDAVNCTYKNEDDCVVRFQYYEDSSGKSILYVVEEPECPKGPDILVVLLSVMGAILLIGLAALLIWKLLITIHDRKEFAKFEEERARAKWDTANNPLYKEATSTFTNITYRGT
Integrin alpha-IIb/beta-3, sequence (P08514 32-887 limits assumed): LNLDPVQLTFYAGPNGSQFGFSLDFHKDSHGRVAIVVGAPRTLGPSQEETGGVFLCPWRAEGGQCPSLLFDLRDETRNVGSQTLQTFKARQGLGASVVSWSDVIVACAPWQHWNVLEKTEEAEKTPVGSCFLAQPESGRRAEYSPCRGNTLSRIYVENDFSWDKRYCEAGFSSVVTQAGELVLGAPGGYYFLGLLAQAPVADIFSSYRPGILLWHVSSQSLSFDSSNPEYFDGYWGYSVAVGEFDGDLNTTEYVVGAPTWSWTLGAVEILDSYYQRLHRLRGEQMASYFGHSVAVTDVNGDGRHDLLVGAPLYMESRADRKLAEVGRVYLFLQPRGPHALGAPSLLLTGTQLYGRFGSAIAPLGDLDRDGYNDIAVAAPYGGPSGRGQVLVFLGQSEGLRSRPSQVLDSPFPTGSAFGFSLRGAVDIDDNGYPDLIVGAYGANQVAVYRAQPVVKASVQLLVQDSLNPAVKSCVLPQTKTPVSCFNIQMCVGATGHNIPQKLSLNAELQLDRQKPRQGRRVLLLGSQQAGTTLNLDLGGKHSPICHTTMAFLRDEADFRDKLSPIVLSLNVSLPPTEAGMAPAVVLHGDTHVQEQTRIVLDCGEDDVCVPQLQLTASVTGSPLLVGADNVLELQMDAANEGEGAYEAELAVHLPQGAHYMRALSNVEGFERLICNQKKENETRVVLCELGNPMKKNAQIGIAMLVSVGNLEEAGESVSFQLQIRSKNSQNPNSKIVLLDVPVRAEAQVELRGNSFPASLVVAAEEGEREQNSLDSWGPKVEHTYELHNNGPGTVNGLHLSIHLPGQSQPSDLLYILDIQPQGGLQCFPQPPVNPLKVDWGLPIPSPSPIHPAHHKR
Integrin alpha-IIb/beta-3, sequence (P08514 891-1039 limits assumed): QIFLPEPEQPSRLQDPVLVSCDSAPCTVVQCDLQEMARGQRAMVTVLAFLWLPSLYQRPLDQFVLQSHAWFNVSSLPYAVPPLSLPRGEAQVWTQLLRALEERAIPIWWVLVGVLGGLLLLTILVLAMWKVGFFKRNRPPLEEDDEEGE
In turn, `CC1(C)[C@@H]2CC[C@@]1(CS(=O)(=O)N[C@@H](CNC(=O)c1ccc(CCc3ccc4c(n3)NCCC4)cc1)C(=O)O)C(=O)C2` [2-((S)-(1R,7S)-7,7-Dimethyl-2-oxo-bicyclo[2.2.1]hept-1-ylmethanesulfonylamino)-3-{4-[2-(5,6,7,8-tetrahydro-[1,8]naphthyridin-2-yl)-ethyl]-benzoylamino}-propionic acid] came in with an IC50 of 157 nM.

In turn, `O=C(NC[C@H](NS(=O)(=O)c1ccccc1)C(=O)O)c1ccc(N2CCNCC2)cc1` [2-((S)-Benzenesulfonylamino)-3-(4-piperazin-1-yl-benzoylamino)-propionic acid] had an IC50 of 16 nM. To `O=C(O)C[C@H](NC(=O)CN1CC[C@H](CCc2ccc3c(n2)NCCC3)C1=O)c1cccnc1` [3-(2-{(S)-2-Oxo-3-[2-(5,6,7,8-tetrahydro-[1,8]naphthyridin-2-yl)-ethyl]-pyrrolidin-1-yl}-acetylamino)-3-(S)-pyridin-3-yl-propionic acid] belongs above 10000 nM; to `O=C(O)CC(NC(=O)CCCCc1ccc2c(n1)NCCC2)c1cncnc1` (stereo not given) [3-Pyrimidin-5-yl-3-(5-5,6,7,8-tetrahydro-[1,8]naphthyridin-2-yl-pentanoylamino)-propionic acid], above 10000 nM; to `CNc1cccc(CCOc2ccc3c(c2)CN(CC(F)(F)F)C(=O)[C@H](CC(=O)O)C3)n1` [[(S)-8-[2-(6-Methylamino-pyridin-2-yl)-ethoxy]-3-oxo-2-(2,2,2-trifluoro-ethyl)-2,3,4,5-tetrahydro-1H-benzo[c]azepin-4-yl]-acetic acid], above 10000 nM.
